Experimental data as given in patent US20040102438A1, “Gaba-receptor modulators for the treatment of neurodegenerative diseases of the eye” (priority 2001, published 2004).

Experiments:
[1] = system: cultured cortical cells of the rat; test: L-glutamate excitotoxicity in cultured cortical cells, cell death by LDH release (Tests 1 and 2); type: cell-based; conditions: active ingredient 500 nm plus 10 nm L-glutamate; after 10, 30 and 60 minutes compared with the control group (FIG. 1, FIG. 2)
Method: Dissociated cortical cells from 16-18 day old fetal rats were bred in 35 mm dishes. The nutrient medium contained during the first 7 days L-lutamine (4 mM), glucose (6 g/l), penicillin (100 U/ml), streptomycin (100 μg/ml) and 10% hormonally enriched medium, which [contained] transferrin (1 mg/ml), insulin (250 μg/ml), putrescine (600 μM), sodium selenite (0.3 μM), progesterone (0.2 μM) and estradio (0.1 μM). The dishes were stored in an atmosphere (5% CO2 and […]) heated to 37 degrees Celsius.
To form the control group (Series 1), half of the dishes were supplemented with the nutrient medium 10 nm L-glutamate and incubated under normotoxic conditions for 4 hours.
To determine the neuroprotective properties, the other half of the dishes were supplemented with the nutrient medium flunitrazepam 500 nm and 10 nm L-glutamate (Series 2) and likewise incubated under normotoxic conditions.
The number of surviving or devitalized cells was determined by determination of the amount of lactate-dehydrogenase (LDH) ejected into the cell medium. The LDH activity was determined photospectrometrically by measurement of the NADH metabolism at 340 nm. […]
In the diagrams of FIG. 1 and FIG. 2 the measured values were entered as follows: The measured value describes the number of dead cells after the test in relation to the total number of cells before the test in percent. […]

[2] = Properties of the active ingredients (solubility, lipophilicity); type: physicochemical

Row | Compound | number of dying cells [1] | water solubility [2]
1 | COCc1c(C(=O)OC(C)C)ncc2[nH]c3ccc(OCc4ccccc4)cc3c12 [abecamil, abecarnil] | reduction in the number of dying cells | –
2 | Cc1ncc2n1-c1ccc(Cl)cc1C(c1ccccc1F)=NC2 [Midazolam] | – | water-soluble
3 | CN1C(=O)CN=C(c2ccccc2F)c2cc([N+](=O)[O-])ccc21 [flunitrazepam] | reduction in the number of dying cells | –
